These results are taken from patent publication US20180044738A1, “METHOD OF DIAGNOSING BREAST CANCER, MONITORING TREATMENT OF BREAST CANCER, AND TREATING BREAST CANCER” (University Of Cincinnati, priority 2016, published 2018).

In this experiment the test system is Xenograft tumors.

Read-outs that look alike come from different tables or passages of the source.

Source text: Xenograft tumors derived from luciferase-expressing MDA-MB-231 and SUM159 cells will be implanted orthotopically in female nude mice. […] Initial dose of the aptamers will follow the previous animal studies (weekly intra-tumoral injection; 2000 pmol each time delivered in 10 sub-injections). The optimal dose will be determined empirically based on the effect on tumor volumes. The lapatinib plus imatinib group will be used to compare the tumor suppression efficacy of drug treatment with the aptamers. […] Tumor volume will be measured weekly with a caliper, and also by an IVIS imaging system (Xenogen) which can reveal potential metastatic sites. Apoptosis will be assessed by TUNEL assay of the tumor tissues; proliferation will be assayed by in vivo BrdU incorporation analysis. Primary tumor with adjacent normal tissues will be examined by hematoxylin/eosin (H&E) staining. Tumor invasion will be assessed based on the extent of infiltration into surrounding tissues, the margins from surrounding tissues, and desomoplastic stromal reaction by smooth muscle actin staining. Human origin of the invasive cells will be confirmed by staining for human cytokeratin.

As to `Cc1ccc(NC(=O)c2ccc(CN3CCN(C)CC3)cc2)cc1Nc1nccc(-c2cccnc2)n1` [imatinib], the tumor growth result (mouse, in vivo, po, 100 mg/kg) was “not either drug alone”. On to `CS(=O)(=O)CCNCc1ccc(-c2ccc3ncnc(Nc4ccc(OCc5cccc(F)c5)c(Cl)c4)c3c2)o1` [lapatinib], for which the tumor growth entry (oral gavage, 100 mg/kg of each drug, in a month, preliminary results, data not shown) is recorded as “not either drug alone”.
